The values that follow come from patent US11395857B2, “Radiolabeled melanocortin 1 receptor-specific alpha-melanocyte-stimulating hormone analogues for imaging or therapy” (PROVINCIAL HEALTH SERVICES AUTHORITY, priority 2018, dated 2022).

A short description of data set [1]: In vivo stability in mouse urine at 1 h p.i. (radio-HPLC). Also noted: species or system C57BL/6J mice. As for the experimental part: All animal experiments were conducted in according to the guidelines established by Canadian Council on Animal Care and approved by Animal Ethics Committee of the University of British Columbia. Mice were housed under pathogen-free conditions and kept on twelve hours light and twelve hours dark cycle in the Animal Research Centre, BC Cancer Research Centre, Vancouver, Canada. C57BL/6J mice were anesthetized by inhalation with 2% isoflurane in 2.0 L/min of oxygen, and approximately 4-6 MBq of [^68Ga]Ga-CCZ01099 or [^68Ga]Ga-CCZ01048 was injected intravenously. The mice were allowed to recover and roam freely in their cages. At 1 h post-injection (p.i.), the mice were euthanized by CO2 inhalation and their urine was collected and analyzed on HPLC for metabolite using the conditions described above. In vivo urine stability of [^68Ga]Ga-CCZ01099 and [^68Ga]Ga-CCZ01048 were 34.0±10.4% and ≥98.0% (n≥3), respectively.
The in vivo stability tests in mouse urine were performed as described in Example 1. […] With systematic reduction in the number of N-methylations for the αMSH analogues, a decrease in in vivo stability was observed.

Data set [2] in a line: Biodistribution of 177Lu-labeled αMSH analogues in mice bearing B16F10 mouse melanoma. The format is in vivo, C57BL/6J mice. The conditions noted are these: mouse, iv, total radioactivity, C57BL/6J mice, B16F10 melanoma. Here is the method: (§1) The B16-F10 mouse melanoma cells were cultured and inoculated in mice as described in Example 1.
(§2) For biodistribution studies, approximately 1-2 MBq of ^177Lu-labeled αMSH analogues via tail vein under anesthesia. At 1, 4, 24, and 120 h p.i., the mice were euthanized by CO2 inhalation. Organs/tissues were harvested and the radioactivity was measured as described in Example 1.

Data set [3] has as its system B16F10 mouse melanoma. The description is as above. In kind it is in vivo, C57BL/6J mice. To be noted: C57BL/6J mice, B16F10 melanoma. As for the experimental part:
as §1, §2

SMILES strings stand for the structures. Like-named read-outs stand apart in the source and are kept apart here.

In the case of `CCCC[C@H](NC(=O)CN1CCC(NC(=O)CN2CCN(CC(=O)O)CCN(CC(=O)O)CCN(CC(=O)O)CC2)CC1)C(=O)N[C@H]1CC(=O)NCCCC[C@@H](C(N)=O)N(C)C(=O)[C@H](Cc2c[nH]c3ccccc23)N(C)C(=O)[C@H](CCCNC(=N)N)N(C)C(=O)[C@@H](Cc2ccccc2)NC(=O)[C@H](Cc2c[nH]cn2)NC1=O` [[^68Ga]Ga-CCZ01103, metal not drawn], the “In vivo urine stability, intact tracer” value in data set [1] turned out to be 92.6 ± 1.6%.

Take `CCCC[C@H](NC(=O)CN1CCC(NC(=O)CN2CCN(CC(=O)O)CCN(CC(=O)O)CCN(CC(=O)O)CC2)CC1)C(=O)N[C@H]1CC(=O)NCCCC[C@@H](C(N)=O)NC(=O)[C@H](Cc2c[nH]c3ccccc23)N(C)C(=O)[C@H](CCCNC(=N)N)N(C)C(=O)[C@@H](Cc2ccccc2)NC(=O)[C@H](Cc2c[nH]cn2)NC1=O` [[^68Ga]Ga-CCZ01104, metal not drawn]: in data set [1], the “In vivo urine stability, intact tracer” value was 92.5 ± 2.1%.

With `CCCC[C@H](NC(=O)CN1CCC(NC(=O)CN2CCN(CC(=O)O)CCN(CC(=O)O)CCN(CC(=O)O)CC2)CC1)C(=O)N[C@H]1CC(=O)NCCCC[C@@H](C(N)=O)N(C)C(=O)[C@H](Cc2c[nH]c3ccccc23)N(C)C(=O)[C@H](CCCNC(=N)N)NC(=O)[C@@H](Cc2ccccc2)NC(=O)[C@H](Cc2c[nH]cn2)NC1=O` [[^68Ga]Ga-CCZ01105, metal not drawn], the “In vivo urine stability, intact tracer” value in data set [1] came to 65.8 ± 2.9%.

With `CCCC[C@H](NC(=O)CN1CCC(NC(=O)CN2CCN(CC(=O)O)CCN(CC(=O)O)CCN(CC(=O)O)CC2)CC1)C(=O)N[C@H]1CC(=O)NCCCC[C@@H](C(N)=O)N(C)C(=O)[C@H](Cc2c[nH]c3ccccc23)NC(=O)[C@H](CCCNC(=N)N)N(C)C(=O)[C@@H](Cc2ccccc2)NC(=O)[C@H](Cc2c[nH]cn2)NC1=O` [[^68Ga]Ga-CCZ01106] [metal not drawn], the “In vivo urine stability, intact tracer” value in data set [1] amounted to 82.5 ± 1.8%.

For `CCCC[C@H](NC(=O)CN1CCC(NC(=O)CN2CCN(CC(=O)O)CCN(CC(=O)O)CCN(CC(=O)O)CC2)CC1)C(=O)N[C@H]1CC(=O)NCCCC[C@@H](C(N)=O)NC(=O)[C@H](Cc2c[nH]c3ccccc23)NC(=O)[C@H](CCCNC(=N)N)N(C)C(=O)[C@@H](Cc2ccccc2)NC(=O)[C@H](Cc2c[nH]cn2)NC1=O` [[^68Ga]Ga-CCZ01114, metal not drawn], the “In vivo urine stability, intact tracer” value in data set [1] is on record as 41.4 ± 3.9%.

With `CCCC[C@H](NC(=O)CN1CCC(NC(=O)CN2CCN(CC(=O)O)CCN(CC(=O)O)CCN(CC(=O)O)CC2)CC1)C(=O)N[C@H]1CC(=O)NCCCC[C@@H](C(N)=O)NC(=O)[C@H](Cc2c[nH]c3ccccc23)NC(=O)[C@H](CCCNC(=N)N)NC(=O)[C@@H](Cc2ccccc2)NC(=O)[C@H](Cc2c[nH]cn2)NC1=O` [^177Lu-labeled CCZ01048, metal not drawn, reference compound], the tissue uptake at 1 h in data set [2] (male, seminal glands, 1 h p.i., read-out: Biodistribution, Seminal glands) is 0.16 ± 0.03 %ID/g; in data set [2] (male, testes, 1 h p.i., read-out: Biodistribution, Testes), 0.27 ± 0.04 %ID/g; in data set [2] (adrenal glands, 1 h p.i., read-out: Biodistribution, Adrenal glands), 0.38 ± 0.38 %ID/g; in data set [2] (bone, 1 h p.i., read-out: Biodistribution, Bone), 0.19 ± 0.01 %ID/g; in data set [2] (heart, 1 h p.i., read-out: Biodistribution, Heart) it was 0.18 ± 0.02 %ID/g; in data set [2] (intestine, 1 h p.i., read-out: Biodistribution, Intestine) it was 0.33 ± 0.06 %ID/g. In addition, the tissue uptake at 1 h stood at 5.36 ± 0.32 %ID/g in data set [2] (kidneys, 1 h p.i., read-out: Biodistribution, Kidneys); 0.54 ± 0.08 %ID/g in data set [2] (liver, 1 h p.i., read-out: Biodistribution, Liver); 0.73 ± 0.4 %ID/g in data set [2] (lungs, 1 h p.i., read-out: Biodistribution, Lungs); 0.29 ± 0.02 %ID/g in data set [2] (spleen, 1 h p.i., read-out: Biodistribution, Spleen); 0.59 ± 0.16 %ID/g in data set [2] (stomach, 1 h p.i., read-out: Biodistribution, Stomach); 2.57 ± 0.62 %ID/g in data set [2] (thyroid, 1 h p.i., read-out: Biodistribution, Thyroid). For the same compound, the tissue uptake at 4 h in data set [2] (male, testes, 4 h p.i., read-out: Biodistribution, Testes) came to 0.16 ± 0.02 %ID/g; in data set [2] (intestine, 4 h p.i., read-out: Biodistribution, Intestine) it was 0.49 ± 0.46 %ID/g; in data set [2] (kidneys, 4 h p.i., read-out: Biodistribution, Kidneys) it was 4.89 ± 1.06 %ID/g; in data set [2] (liver, 4 h p.i., read-out: Biodistribution, Liver), 0.48 ± 0.1 %ID/g; in data set [2] (spleen, 4 h p.i., read-out: Biodistribution, Spleen), 0.22 ± 0.06 %ID/g; in data set [2] (stomach, 4 h p.i., read-out: Biodistribution, Stomach), 0.56 ± 0.08 %ID/g. Further, the tissue uptake at 4 h in data set [2] (thyroid, 4 h p.i., read-out: Biodistribution, Thyroid) is 2.16 ± 0.4 %ID/g. In addition, the tissue uptake at 24 h in data set [2] (intestine, 24 h p.i., read-out: Biodistribution, Intestine) is 0.27 ± 0.23 %ID/g; in data set [2] (kidneys, 24 h p.i., read-out: Biodistribution, Kidneys), 1.78 ± 0.32 %ID/g; in data set [2] (liver, 24 h p.i., read-out: Biodistribution, Liver) it was 0.34 ± 0.05 %ID/g; in data set [2] (thyroid, 24 h p.i., read-out: Biodistribution, Thyroid), 1.24 ± 0.32 %ID/g. The tissue uptake at 120 h came out at 0.36 ± 0.09 %ID/g in data set [2] (kidneys, 120 h p.i., read-out: Biodistribution, Kidneys) and 0.16 ± 0.04 %ID/g in data set [2] (liver, 120 h p.i., read-out: Biodistribution, Liver). In addition, the tissue to tissue ratio at 1 h in data set [2] (tumour/blood, 1 h p.i., read-out: Tumour/blood) came out at 32.4 ± 7.58; in data set [2] (tumour/kidney, 1 h p.i., read-out: Tumour/kidney) it was 3.04 ± 0.63; in data set [2] (tumour/muscle, 1 h p.i., read-out: Tumour/muscle), 126 ± 34.1. Moreover, the tissue to tissue ratio at 4 h in data set [2] (tumour/blood, 4 h p.i., read-out: Tumour/blood) amounted to 206 ± 73.7; in data set [2] (tumour/kidney, 4 h p.i., read-out: Tumour/kidney), 3.65 ± 1.48; in data set [2] (tumour/muscle, 4 h p.i., read-out: Tumour/muscle), 561 ± 208. The tissue to tissue ratio at 24 h in data set [2] (tumour/blood, 24 h p.i., read-out: Tumour/blood) amounted to 530 ± 45.1; in data set [2] (tumour/kidney, 24 h p.i., read-out: Tumour/kidney), 2.25 ± 0.15; in data set [2] (tumour/muscle, 24 h p.i., read-out: Tumour/muscle), 239 ± 108. Moreover, the tissue to tissue ratio at 120 h in data set [2] (tumour/blood, 120 h p.i., read-out: Tumour/blood) was 233 ± 57.8; in data set [2] (tumour/kidney, 120 h p.i., read-out: Tumour/kidney) it was 1.14 ± 0.65; in data set [2] (tumour/muscle, 120 h p.i., read-out: Tumour/muscle), 80.9 ± 28.1. Also, the excreta dose per gram or mL at 1 h in data set [2] (urine, 1 h p.i.) was 110 ± 81.9 %ID/g. Besides, in data set [2] (urine, 4 h p.i.), the excreta dose per gram or mL at 4 h came out at 13.8 ± 10.2 %ID/g. Also, in data set [2] (urine, 24 h p.i.), the excreta dose per gram or mL at 24 h is 1.99 ± 1.39 %ID/g. In addition, in data set [2] (urine, 120 h p.i.), the excreta dose per gram or mL at 120 h came out at 0.22 ± 0.05 %ID/g. The “Biodistribution, B16F10 tumour” value stood at 16.3 ± 3.75 % ID/g in data set [3] (1 h p.i.), 16.7 ± 3.86 % ID/g in data set [3] (4 h p.i.), 4.39 ± 1.36 % ID/g in data set [3] (24 h p.i.) and 0.41 ± 0.21 % ID/g in data set [3] (120 h p.i.). In addition, the “Biodistribution, Blood” value in data set [3] (120 h p.i.) stood at 0.00 ± 0.00 % ID/g.
